Measured values reported in ChEMBL document CHEMBL5465560, “Selectivity Literature for EUbOPEN Chemogenomic Library” (2024).

Key:
[1] = target: T1, Serine/threonine-protein kinase TAO2 (Homo sapiens) (UniProt Q9UL54); assay: Selectivity interaction (Ambit KINOMEscan and KiNATiv profiling in Jurkat cells) EUB0000090b TAOK2; format: cell-based; conditions: at 1 µM
T1 sequence (whole entry): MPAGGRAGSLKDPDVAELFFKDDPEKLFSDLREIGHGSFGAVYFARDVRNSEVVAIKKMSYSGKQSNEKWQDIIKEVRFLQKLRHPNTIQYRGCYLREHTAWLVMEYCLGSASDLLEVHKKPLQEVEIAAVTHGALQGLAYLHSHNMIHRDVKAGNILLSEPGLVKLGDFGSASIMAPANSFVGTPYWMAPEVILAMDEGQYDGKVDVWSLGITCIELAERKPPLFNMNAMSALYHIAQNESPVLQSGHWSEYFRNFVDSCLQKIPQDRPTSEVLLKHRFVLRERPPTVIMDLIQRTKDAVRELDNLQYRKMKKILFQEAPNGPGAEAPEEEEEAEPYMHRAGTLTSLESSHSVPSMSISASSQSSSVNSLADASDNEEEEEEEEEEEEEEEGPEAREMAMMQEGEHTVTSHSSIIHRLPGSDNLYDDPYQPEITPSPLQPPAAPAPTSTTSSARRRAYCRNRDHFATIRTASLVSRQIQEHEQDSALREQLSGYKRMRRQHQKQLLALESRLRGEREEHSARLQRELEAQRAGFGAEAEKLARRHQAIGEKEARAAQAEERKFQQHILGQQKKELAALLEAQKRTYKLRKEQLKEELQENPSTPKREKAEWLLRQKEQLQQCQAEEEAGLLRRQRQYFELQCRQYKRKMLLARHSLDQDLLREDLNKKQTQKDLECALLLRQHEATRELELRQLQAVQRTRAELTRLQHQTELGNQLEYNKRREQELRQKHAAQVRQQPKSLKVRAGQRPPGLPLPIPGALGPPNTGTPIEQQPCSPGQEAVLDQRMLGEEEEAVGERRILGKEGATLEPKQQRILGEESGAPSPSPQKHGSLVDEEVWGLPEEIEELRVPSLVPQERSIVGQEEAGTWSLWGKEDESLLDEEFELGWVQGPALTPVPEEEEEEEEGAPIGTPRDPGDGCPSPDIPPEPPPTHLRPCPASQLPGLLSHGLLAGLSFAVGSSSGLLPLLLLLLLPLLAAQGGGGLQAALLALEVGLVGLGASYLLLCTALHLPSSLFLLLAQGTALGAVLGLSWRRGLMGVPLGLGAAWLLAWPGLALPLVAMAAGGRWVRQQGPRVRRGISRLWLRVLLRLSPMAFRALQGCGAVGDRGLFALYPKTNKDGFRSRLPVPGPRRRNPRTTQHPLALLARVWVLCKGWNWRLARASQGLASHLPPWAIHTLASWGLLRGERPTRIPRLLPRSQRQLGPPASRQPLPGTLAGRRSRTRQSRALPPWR

[2] = target: T2, Dual specificity protein kinase TTK (Homo sapiens) (UniProt P33981); assay: Selectivity interaction (KinomeScan (DiscoverX)) EUB0000618a TTK; conditions: at 10 µM
T2 sequence (whole entry): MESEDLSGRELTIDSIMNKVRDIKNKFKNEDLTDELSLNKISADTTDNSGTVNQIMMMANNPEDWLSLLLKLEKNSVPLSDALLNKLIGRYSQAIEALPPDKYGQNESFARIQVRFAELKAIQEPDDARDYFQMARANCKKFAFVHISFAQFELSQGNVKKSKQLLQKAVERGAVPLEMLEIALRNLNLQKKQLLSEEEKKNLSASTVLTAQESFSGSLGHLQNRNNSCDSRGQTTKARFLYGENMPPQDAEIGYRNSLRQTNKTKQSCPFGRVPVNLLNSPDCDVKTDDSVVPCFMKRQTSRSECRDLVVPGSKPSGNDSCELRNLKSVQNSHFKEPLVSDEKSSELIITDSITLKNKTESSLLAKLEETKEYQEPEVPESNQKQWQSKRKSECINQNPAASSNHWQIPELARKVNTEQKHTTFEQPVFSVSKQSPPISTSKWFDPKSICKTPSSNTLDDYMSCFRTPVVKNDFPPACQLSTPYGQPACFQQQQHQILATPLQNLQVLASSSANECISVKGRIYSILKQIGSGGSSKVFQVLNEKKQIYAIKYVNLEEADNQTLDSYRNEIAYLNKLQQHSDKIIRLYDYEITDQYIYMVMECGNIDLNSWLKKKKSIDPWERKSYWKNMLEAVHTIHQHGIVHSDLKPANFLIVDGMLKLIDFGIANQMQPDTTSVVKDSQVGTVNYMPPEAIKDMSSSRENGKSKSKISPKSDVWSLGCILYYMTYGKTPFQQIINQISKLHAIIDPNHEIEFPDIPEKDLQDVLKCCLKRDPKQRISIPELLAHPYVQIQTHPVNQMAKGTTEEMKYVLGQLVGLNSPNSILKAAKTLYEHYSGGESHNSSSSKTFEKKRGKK

**Q.** Which % of control [1] does the source give for `CN(C)C/C=C/C(=O)Nc1ccc(C(=O)N2CCCC(Nc3ncc(Cl)c(-c4c[nH]c5ccccc45)n3)C2)cc1` (configuration not stated) here?
**A.** 50%

**Q.** `O[C@H]1CC[C@H](Nc2ncc3nc(Nc4c(F)cc(F)cc4F)n([C@H]4CCOC4)c3n2)CC1` was tested. Which % of control [2] did it give?
**A.** 85%
